Measured values as given in patent publication US6824801B2, “Process for producing foods having good keeping qualities and food keeping agents” (Nihon Starch Co., Ltd., priority 2000, dated 2004).
Like-named read-outs stand apart in the source and are kept apart here.

Columns and labels:
many bacteria = settings: against many bacteria; 'has been recognized'; cited from earlier work
[1] = tested on: Bacillus subtillis IAM 1249; test: Test Example 2 number of living bacteria in noodle soup preserved at 30° C. (FIG. 3)
Experimental: FIG. 3 is a graph showing the number of Bacillus. subtillis IAM 1249 living in a noodle soup under preservation.
(§1) This will be described in detail later in Test Example 2.
(§2) 40 Grams of a powdery soup stock (produced by Yamaki, Co.) and 200 ml of commercially available soy sauce were added to 1,000 ml of water to prepare a noodle soup. Bacteria were inoculated into the noodle soup, and the noodle soup was preserved at 30° C., and then, the number of living bacteria was counted. FIG. 3 is a curve showing the number of living Bacillus subtillis IAM 1249 (which will be simply referred to as B. subtillis hereinafter), and FIG. 4 is a curve showing the number of living Escherichia coli NRIC 1023 (which will be simply referred to as E. coli hereinafter). In FIGS. 3 and 4, A-1 and A′-1 are curves each indicating the number of living B. subtillis or E. colli inoculated into the unsterilized noodle soup. In the cases of A-1 and A′-1,1,5-D-anhydrofructose was not added, and P and P′ indicate the number of bacteria initially generated.
(§3) A-2 and A′-2 are curves each indicating the number of living B. subtillis or E. colli inoculated into the noodle soup sterilized by heating in hot water at […]. for 10 minutes. In the cases of A-2 and A′-2,1,5-D-anhydrofructose was not added, and the numbers of bacteria initially generated are indicated by Q and Q′, respectively. […]

[2] = tested on: Escherichia coli NRIC 1023; test: minimum growth-inhibiting concentration (MIC) of AF, influence of heat treatment (Table A); assay type: cell-based
From the text: (§4) As described in the first process, 1,5-D-anhydrofructose is an antibacterial substance having a high safety, but the present inventors have found to obtain the following advantages when 1,5-D-anhydrofructose is previously subjected to a heat treatment. That is, an antibacterial power of 1,5-D-anhydrofructose can be further increased, and the antibacterial power is developed at a low concentration of 1,5-D-anhydrofructose, as compared with a case where 1,5-D-anhydrofructose is not subjected to the heat treatment. Consequently, a food containing 1,5-D-anhydrofructose is difficult to putrefy and at the same time, the antibacterial spectrum becomes wider.

[3] = tested on: Bacillus subtillis IAM 1249; test: as above; assay type: cell-based
From the text: as §4

[4] = tested on: Streptococcus lactis IAM 1249; test: as above; assay type: cell-based
From the text: as §4

[5] = tested on: Salmonella typhimurium IFO 12529; test: as above; assay type: cell-based
From the text: as §4

[6] = tested on: Staphylococcus aureus FDA 209P; test: as above; assay type: cell-based
From the text: as §4

[7] = tested on: Salmonella typhimurium IFO 12529; test: number of bacteria killed by heating in soybean-casein digest broth medium pH 5.5 (FIG. 2); assay type: cell-based; settings: 1% 1,5-D-anhydrofructose, heated at 60° C. for 10 minutes, pH 5.5 broth
From the text: FIG. 2 is a curve indicating the number of which Salmonella typhimurium IFO 12529 killed by heating.
(§5) FIGS. 1 and 2 show curves each indicating the number of gram-negative bacteria killed in a soybean-casein digest broth medium (pH of 5.5) by heating.

[8] = tested on: Bacillus subtillis IAM 1249; test: Test Example 1 antibacterial power test using turbidimetry (Table 12); assay type: cell-based; settings: for OD^660 (turbidity): shake culture 37° C., 72 hours
Experimental: AF was subjected to an antibacterial power test using a turbidimetry. More specifically, a soybean-casein digest broth medium (having a pH value of 5.5) previously sterilized and 1% of AF were placed into a test tube and heated under heating conditions shown in Table 12. Then, 8.7×10^4 CFU of Bacillus subtillis IAM 1249 was inoculated into the test tube, shake culture was carried out at 37° C. for 72 hours, and the turbidity (OD, 660 nm) was then measured.

Bacillus subtillis = test: Example 11 curry preservability, sensory evaluation test (Table 14); settings: curry with AF
Experimental: 7 Parts of beef, 57 parts of vegetables (12 parts of potato, 40 parts of onion and 5 parts of carrot), 1 part of a curry powder, 6 parts of fatty oil, 0.2 parts of sodium glutamate, 1 part of starch and 40 parts of a soup were mixed together, and the mixture was heated and cooked at 80° C. for 1 hour. The resulting product was a curry containing a somewhat larger amount of soup and having a low viscosity. The following operations were conducted in a clean bench. The curry was subdivided each in an amount of 95 grams into ten plugged vessels previously sterilized. The ten vessels were divided into two groups each consisting of five vessels. A 30% solution of AF subjected to an aseptic filtration was added in an amount of 5 g into each of the vessels in one of the groups. Then, 2×10 ^5 nutritious cells of Bacillus subtillis incubated previously were inoculated into the group, and was mixed uniformly. Five grams of a 30% solution of AF subjected to an aseptic filtration was added into each of the vessels in the other group. Then, 2×10^5 nutritious cells of Bacillus subtillis incubated previously were inoculated into the group, and after mixing uniformly, heated at 60° C. for 10 minutes and then cooled rapidly. Both of the groups were preserved at […], and the preservability of them was compared by a sensory evaluation test.

[9] = tested on: Escherichia coli NRIC 1023; test: Test Example 2 number of living bacteria in noodle soup preserved at 30° C. (FIG. 4)
Experimental: FIG. 4 is a graph showing the number of Escherichia coli NRIC 1023 living in a noodle soup under preservation.
as §1, §2, §3

[10] = tested on: Pseudomonas aeruginosa IFO 12680; test: number of bacteria killed by heating in soybean-casein digest broth medium pH 5.5 (FIG. 1); assay type: cell-based; settings: 1% 1,5-D-anhydrofructose, heating at 55° C. for ten minutes, pH 5.5 broth
From the text: FIG. 1 is a curve indicating the number of Pseudomonas aeruginosa IFO 12680 killed by heating.
as §5

Lactobacillus casei = test: Test Example 3 swelling of noodle soup sacks preserved at 30° C. (Table 13); settings: 2% of AF
Experimental: 40 Grams of a powdery soup stock (produced by […], Co.), 200 ml of commercially available soy sauce and 2% of AF were added to 1000 ml of water. The mixture was aseptically filtered and charged in an amount of 100 ml into each of ten polypropylene sacks previously sterilized. Meanwhile, 1 ml of the noodle soup (containing a number of living bacteria of 3.1×10^6/ml) deteriorated due to “swelling” caused by Lactobacillus casei was charged into each of the above-prepared ten sacks, which were then sealed so as air not to be left therein. The ten sacks were divided into two groups each consisting of five sacks. One of the groups was not heated, and the other group was heated in a hot water at 55° C. for 10 minutes. Then, both of them were preserved at 30° C., and the occurrence of “swelling” was observed.

[11] = noodle soup, heating at 550° C. for 10 minutes after addition of 1,5-D-anhydrofructose vs heating without it

O=C1CO[C@H](CO)[C@@H](O)[C@@H]1O [AF, 1,5-D-anhydrofructose]
concentration exhibiting proliferation-inhibiting effect (many bacteria): ≤ 1%
proliferation of bacteria during preservation ([1]; noodle soup containing 1,5-D-anhydrofructose, 30° C., B-2 vs B-3): suppressed
number of living bacteria initially generated (from Q to R) [1, 11]: reduced by about one figure
minimum growth-inhibiting concentration (MIC) ([2]; listed as non-heated AF): 5%
minimum growth-inhibiting concentration (MIC) ([3]; listed as non-heated AF): 3%
minimum growth-inhibiting concentration (MIC) ([4]; listed as non-heated AF): 3%
minimum growth-inhibiting concentration (MIC) ([5]; listed as non-heated AF): 4%
minimum growth-inhibiting concentration (MIC) ([6]; listed as non-heated AF): 1.5%
number of bacteria remaining alive relative to the control [7]: one hundredth or less of that in the control
OD^660 (turbidity) ([8]; 1% of AF added and not heated): 0.836
OD^660 (turbidity) ([8]; 1% of AF, heated at 55° C. for 10 minutes): 0.513
OD^660 (turbidity) ([8]; 1% of AF, heated at 60° C. for 10 minutes): 0.437
OD^660 (turbidity) ([8]; 1% of AF, heated at 80° C. for 10 minutes): 0.355
OD^660 (turbidity) ([8]; 1% of AF, heated at 90° C. for 10 minutes): 0.338
antibacterial power relative to the control with 1% of AF added and not heated ([8]; heated at 55° C. for 10 minutes after addition of 1% of AF, (1.160-0.513)/(1.160-0.836)): about two times
number of normal vessels / total number of vessels (Bacillus subtillis; Heated at 60° C. for 10 minutes, preservation time 12): 5/5
number of normal vessels / total number of vessels (Bacillus subtillis; Heated at 60° C. for 10 minutes, preservation time 24): 5/5
number of normal vessels / total number of vessels (Bacillus subtillis; Heated at 60° C. for 10 minutes, preservation time 36): 5/5
number of normal vessels / total number of vessels (Bacillus subtillis; Heated at 60° C. for 10 minutes, preservation time 48): 5/5
number of normal vessels / total number of vessels (Bacillus subtillis; Heated at 60° C. for 10 minutes, preservation time 60): 0/5
number of normal vessels / total number of vessels (Bacillus subtillis; Not heated, preservation time 12): 5/5
number of normal vessels / total number of vessels (Bacillus subtillis; Not heated, preservation time 24): 5/5
number of normal vessels / total number of vessels (Bacillus subtillis; Not heated, preservation time 36): 0/5
proliferation of bacteria during preservation ([9]; noodle soup containing 1,5-D-anhydrofructose, 30° C., B′-2 vs B′-3): suppressed
number of living bacteria initially generated (from Q′ to R′) [9, 11]: reduced by about one figure
number of bacteria remaining alive relative to the control [10]: one tenth of that in the control
number of normal sacks / total number of sacks (Lactobacillus casei; heated at 55° C. for 10 minutes, 5 preservation days at 30° C.): 5/5
number of normal sacks / total number of sacks (Lactobacillus casei; heated at 55° C. for 10 minutes, 10 preservation days at 30° C.): 3/5
number of normal sacks / total number of sacks (Lactobacillus casei; heated at 55° C. for 10 minutes, 15 preservation days at 30° C.): 1/5
number of normal sacks / total number of sacks (Lactobacillus casei; heated at 55° C. for 10 minutes, 20 preservation days at 30° C.): 0/5
number of normal sacks / total number of sacks (Lactobacillus casei; not heated, 5 preservation days at 30° C.): 4/5
number of normal sacks / total number of sacks (Lactobacillus casei; not heated, 10 preservation days at 30° C.): 0/5

O=C1CO[C@H](CO)[C@@H](O)[C@@H]1O [heated AF, 1,5-D-anhydrofructose]
minimum growth-inhibiting concentration (MIC) [2]: 2%
minimum growth-inhibiting concentration (MIC) [3]: 1%
minimum growth-inhibiting concentration (MIC) [4]: 1%
minimum growth-inhibiting concentration (MIC) [5]: 2%
minimum growth-inhibiting concentration (MIC) [6]: 0.5%
